Publication PMC4965013, “Open Source Drug Discovery with the Malaria Box Compound Collection for Neglected Diseases and Beyond” (PLoS Pathogens, 2016)
Values belong to the compound of their own block, whether it stands above or below them.

Columns and labels:
P. falciparum = experiment: EC50 listed in S2 Table Metabolomics (used to set the concentration tested); assay type: cell-based; details: Plasmodium falciparum; EC50 used for Factor_XEC50 in metabolomics; read-out: EC50_nM
[1] = tested on: P. falciparum 3D7 trophozoites; experiment: Metabolomic fingerprint profiling LC-MS; assay type: cell-based, Plasmodium falciparum; design: UDP-D-glucose / ADP-D-glucose: unit not given here; details: for Acetyllysine / N-acetyl-L-ornithine / N-carbamoyl-L-aspartate / NADPH / dAMP / dCMP / dTDP / dTMP / dTTP / dihydroorotate / orotate / DLH / DLS/SDL/SID / PD / PEE / PVNF / 3-phosphoglycerate / ADP-D-glucose / ATP / CDP / D-sedoheptulose-1/7-phosphate / FAD / GMP / NAD+ / NADP+ / Octoluse Bisphosphate / Pyroglutamic acid / UDP-D-glucose / UDP-D-glucuronate / UDP-N-acetyl-glucosamine / UDP / UMP / UTP / a-ketoglutarate / citrate/isocitrate / cytidine / dATP / dGMP/AMP / fumarate / glucose-1/6-phosphate / glycerate / guanine / guanosine / hypoxanthine / indole / inosine / nicotinate / ornithine / phosphoenolpyruvate / pyruvate / ribose-phosphate / sarcosine/alanine / sn-glycerol-3-phosphate / succinate/methylmalonic acid / uridine / xanthosine: S2 Table Metabolomics; for Acetyllysine: metabolite Acetyllysine; for N-acetyl-L-ornithine: metabolite N-acetyl-L-ornithine; for N-carbamoyl-L-aspartate: metabolite N-carbamoyl-L-aspartate; for NADPH: metabolite NADPH; for dAMP: metabolite dAMP; for dCMP: metabolite dCMP; for dTDP: metabolite dTDP; for dTMP: metabolite dTMP; for dTTP: metabolite dTTP; for dihydroorotate: metabolite dihydroorotate; for orotate: metabolite orotate; for DLH: peptide DLH; for DLS/SDL/SID: peptide DLS/SDL/SID; for PD: peptide PD; for PEE: peptide PEE; for PVNF: peptide PVNF; for 3-phosphoglycerate: metabolite 3-phosphoglycerate; for ADP-D-glucose: metabolite ADP-D-glucose; for ATP: metabolite ATP; for CDP: metabolite CDP; for CDP / D-sedoheptulose-1/7-phosphate / GMP / Octoluse Bisphosphate / UDP / UMP / UTP / citrate/isocitrate / dGMP/AMP / fumarate / glucose-1/6-phosphate / glycerate / guanine / guanosine / inosine / pyruvate / sarcosine/alanine / succinate/methylmalonic acid / uridine / xanthosine: change in metabolite level after compound treatment; for D-sedoheptulose-1/7-phosphate: metabolite D-sedoheptulose-1/7-phosphate; for FAD: metabolite FAD; for GMP: metabolite GMP; for NAD+: metabolite NAD+; for NADP+: metabolite NADP+; for Octoluse Bisphosphate: metabolite Octoluse Bisphosphate; for Pyroglutamic acid: metabolite Pyroglutamic acid; for UDP-D-glucose: metabolite UDP-D-glucose; for UDP-D-glucuronate: metabolite UDP-D-glucuronate; for UDP-N-acetyl-glucosamine: metabolite UDP-N-acetyl-glucosamine; for UDP: metabolite UDP; for UMP: metabolite UMP; for UTP: metabolite UTP; for a-ketoglutarate: metabolite a-ketoglutarate; for citrate/isocitrate: metabolite citrate/isocitrate; for cytidine: metabolite cytidine; for dATP: metabolite dATP; for dGMP/AMP: metabolite dGMP/AMP; for fumarate: metabolite fumarate; for glucose-1/6-phosphate: metabolite glucose-1/6-phosphate; for glycerate: metabolite glycerate; for guanine: metabolite guanine; for guanosine: metabolite guanosine; for hypoxanthine: metabolite hypoxanthine; for indole: metabolite indole; for inosine: metabolite inosine; for 2_3-Diphosphoglyceric acid / 4-phosphopantothenate / 6-phospho-D-gluconate / FMN / IMP / Pyrophosphate / Sedoheptoluse bisphosphate / cyclic-AMP / glutathione disulfide / lactate / myo-inositol: metabolite level change after treatment; for nicotinate: metabolite nicotinate; for ornithine: metabolite ornithine; for phosphoenolpyruvate: metabolite phosphoenolpyruvate; for pyruvate: metabolite pyruvate; for ribose-phosphate: metabolite ribose-phosphate; for sarcosine/alanine: metabolite sarcosine/alanine; for sn-glycerol-3-phosphate: metabolite sn-glycerol-3-phosphate; for succinate/methylmalonic acid: metabolite succinate/methylmalonic acid; for uridine: metabolite uridine; for xanthosine: metabolite xanthosine

EC50 (P. falciparum): 378 nM
SMILES: CCc1c(C)c(=N)c2ccccc2n1C [MMV006278]
Acetyllysine [1]: -0.2738
N-acetyl-L-ornithine [1]: -0.3387
N-carbamoyl-L-aspartate [1]: 0.04339
NADPH [1]: -0.1545
dAMP [1]: -0.2592
dCMP [1]: 0.05199
dTDP [1]: -0.2955
dTMP [1]: -0.278
dTTP [1]: 0.1315
dihydroorotate [1]: 0.1029
orotate [1]: -0.07528
DLH [1]: 0.1151
DLS/SDL/SID [1]: -0.1067
PD [1]: -0.1923
PEE [1]: 0.09363
PVNF [1]: -0.2186
3-phosphoglycerate [1]: -0.1758
ADP-D-glucose [1]: -0.3132
ATP [1]: -0.07819
CDP [1]: -0.1774
D-sedoheptulose-1/7-phosphate [1]: -0.2519
FAD [1]: -0.07776
GMP [1]: -0.3571
NAD+ [1]: -0.07608
NADP+ [1]: -0.2182
Octoluse Bisphosphate [1]: -0.2383
Pyroglutamic acid [1]: -0.07564
UDP-D-glucose [1]: -0.16
UDP-D-glucuronate [1]: -0.1623
UDP-N-acetyl-glucosamine [1]: -0.2266
UDP [1]: -0.2326
UMP [1]: -0.3171
UTP [1]: 0.05042
a-ketoglutarate [1]: 0.05252
citrate/isocitrate [1]: 0.03563
cytidine [1]: -0.182
dATP [1]: 0.1448
dGMP/AMP [1]: -0.3534
fumarate [1]: -0.3107
glucose-1/6-phosphate [1]: -0.535
glycerate [1]: -0.4983
guanine [1]: -0.2094
guanosine [1]: -0.1411
hypoxanthine [1]: 0.04937
indole [1]: -0.04764
inosine [1]: -0.3767
2_3-Diphosphoglyceric acid [1]: -0.2671
4-phosphopantothenate [1]: -0.1093
6-phospho-D-gluconate [1]: -0.1749
FMN [1]: 0.06658
IMP [1]: -0.1794
Pyrophosphate [1]: -0.2417
Sedoheptoluse bisphosphate [1]: -0.1437
cyclic-AMP [1]: -0.03098
glutathione disulfide [1]: -0.1999
lactate [1]: 0.04854
myo-inositol [1]: 0.07173
nicotinate [1]: -0.02818
ornithine [1]: 0.04171
phosphoenolpyruvate [1]: -0.1381
pyruvate [1]: -0.06156
ribose-phosphate [1]: 0.02401
sarcosine/alanine [1]: -0.2797
sn-glycerol-3-phosphate [1]: -0.6565
succinate/methylmalonic acid [1]: -0.7483
uridine [1]: -0.02002
xanthosine [1]: -0.104

EC50 (P. falciparum): 154 nM
SMILES: CCOC(=O)C1=C(c2ccccc2)N=c2sc(=Cc3cc(C)n(-c4ccc(F)cc4)c3C)c(=O)n2C1c1cccc(OC)c1OC (stereo not drawn) [MMV666601]
Acetyllysine [1]: -0.456
N-acetyl-L-ornithine [1]: -0.1781
N-carbamoyl-L-aspartate [1]: 0.03088
NADPH [1]: 0.275
dAMP [1]: -0.2186
dCMP [1]: 0.01598
dTDP [1]: -0.2912
dTMP [1]: -0.2825
dTTP [1]: -0.02615
dihydroorotate [1]: 0.05127
orotate [1]: -0.2921
DLH [1]: -0.04885
DLS/SDL/SID [1]: -0.07047
PD [1]: -0.02012
PEE [1]: -0.1327
PVNF [1]: -0.1227
3-phosphoglycerate [1]: 0.04151
ADP-D-glucose [1]: -0.1367
ATP [1]: 0.1113
CDP [1]: -0.2732
D-sedoheptulose-1/7-phosphate [1]: -0.3701
FAD [1]: 0.009316
GMP [1]: 0.1751
NAD+ [1]: 0.04978
NADP+ [1]: -0.07076
Octoluse Bisphosphate [1]: -0.0546
Pyroglutamic acid [1]: 0.2145
UDP-D-glucose [1]: -0.01836
UDP-D-glucuronate [1]: -0.09865
UDP-N-acetyl-glucosamine [1]: -0.01529
UDP [1]: -0.3315
UMP [1]: 0.1049
UTP [1]: 0.1938
a-ketoglutarate [1]: 0.0362
citrate/isocitrate [1]: 0.4989
cytidine [1]: 0.1663
dATP [1]: 0.2724
dGMP/AMP [1]: -0.3927
fumarate [1]: -0.02339
glucose-1/6-phosphate [1]: -0.02704
glycerate [1]: 0.006669
guanine [1]: -0.1817
guanosine [1]: -0.06753
hypoxanthine [1]: 0.09643
indole [1]: 0.007804
inosine [1]: 0
2_3-Diphosphoglyceric acid [1]: -0.2012
4-phosphopantothenate [1]: -0.1061
6-phospho-D-gluconate [1]: 0.004224
FMN [1]: -0.01347
IMP [1]: -0.1927
Pyrophosphate [1]: -0.04369
Sedoheptoluse bisphosphate [1]: -0.08738
cyclic-AMP [1]: 0.1818
glutathione disulfide [1]: -0.01346
lactate [1]: -0.02544
myo-inositol [1]: -0.1142
nicotinate [1]: 0.07511
ornithine [1]: -0.266
phosphoenolpyruvate [1]: -0.02402
pyruvate [1]: -0.028
ribose-phosphate [1]: 0.1121
sarcosine/alanine [1]: -0.3168
sn-glycerol-3-phosphate [1]: -0.06233
succinate/methylmalonic acid [1]: 0.1961
uridine [1]: -0.1775
xanthosine [1]: 0.2404

EC50 (P. falciparum): 32.8 nM
SMILES: Cc1cc(NC(=O)C2c3ccccc3C(=O)N(CC(C)C)C2c2cccs2)no1 (stereo not drawn) [MMV006429]
Acetyllysine [1]: -4.876
N-acetyl-L-ornithine [1]: -3.5354
N-carbamoyl-L-aspartate [1]: -2.585
NADPH [1]: 1.978
dAMP [1]: 2.292
dCMP [1]: 1.167
dTDP [1]: 1.627
dTMP [1]: 3.344
dTTP [1]: 1.446
dihydroorotate [1]: -3.6651
orotate [1]: -0.181
DLH [1]: -5.907
DLS/SDL/SID [1]: -4.536
PD [1]: -2.845
PEE [1]: -3.543
PVNF [1]: -6.513
3-phosphoglycerate [1]: 0.34
ADP-D-glucose [1]: -0.1376
ATP [1]: -1.344
CDP [1]: -0.4641
D-sedoheptulose-1/7-phosphate [1]: -1.187
FAD [1]: -1.625
GMP [1]: -1.884
NAD+ [1]: -0.4933
NADP+ [1]: -0.001455
Octoluse Bisphosphate [1]: -2.069
Pyroglutamic acid [1]: 0.2334
UDP-D-glucose [1]: -0.07653
UDP-D-glucuronate [1]: -0.002659
UDP-N-acetyl-glucosamine [1]: 0.06871
UDP [1]: -1.216
UMP [1]: -0.6265
UTP [1]: -1.299
a-ketoglutarate [1]: 0.2879
citrate/isocitrate [1]: -0.09158
cytidine [1]: 0.5285
dATP [1]: 0.0138
dGMP/AMP [1]: -0.6616
fumarate [1]: -0.1647
glucose-1/6-phosphate [1]: -1.368
glycerate [1]: -0.8344
guanine [1]: 0.5068
guanosine [1]: 1.214
hypoxanthine [1]: 0.09881
indole [1]: 0.1757
inosine [1]: 0.2569
2_3-Diphosphoglyceric acid [1]: -1.036
4-phosphopantothenate [1]: -0.6242
6-phospho-D-gluconate [1]: -0.2953
FMN [1]: -0.07748
IMP [1]: -0.08419
Pyrophosphate [1]: -1.06
Sedoheptoluse bisphosphate [1]: -0.9732
cyclic-AMP [1]: -0.7986
glutathione disulfide [1]: -0.4517
lactate [1]: -0.7779
myo-inositol [1]: -1.114
nicotinate [1]: 0.9425
ornithine [1]: -0.1056
phosphoenolpyruvate [1]: 0.447
pyruvate [1]: -2.0102
ribose-phosphate [1]: -0.6145
sarcosine/alanine [1]: -1.58
sn-glycerol-3-phosphate [1]: 1.267
succinate/methylmalonic acid [1]: 0.2625
uridine [1]: 1.463
xanthosine [1]: -1.351
